Experiments:
Plasmodium falciparum [1] = assay: Antimicrobial activity against Plasmodium falciparum at ring stage; format: functional, organism-based
Plasmodium vivax [2] = assay: Antimicrobial activity against Plasmodium vivax at ring stage
Plasmodium vivax [3] = assay: Antimicrobial activity against Plasmodium vivax at trophozoite stage; format: functional, organism-based
Plasmodium vivax [4] = assay: Antimicrobial activity against Plasmodium vivax harboring single copy of Pvmdr1 gene; format: functional, organism-based
Plasmodium vivax [5] = assay: Antimicrobial activity against Plasmodium vivax harboring amplified Pvmdr1 gene; format: functional, organism-based
Plasmodium falciparum [6] = assay: Antimicrobial activity against Plasmodium falciparum harboring amplified Pfmdr1 gene
Plasmodium falciparum [7] = assay: Antimicrobial activity against Plasmodium falciparum harboring single copy of Pfmdr1 gene

Question: `CC(C)(C)NC(=O)[C@@H]1C[C@@H]2CCCC[C@@H]2CN1C[C@@H](O)[C@H](Cc1ccccc1)NC(=O)[C@H](CC(N)=O)NC(=O)c1ccc2ccccc2n1` was tested. Which IC50 (Plasmodium falciparum [1]) did it give?
Answer: 8300 nM

Question: With `CC(C)c1nc(CN(C)C(=O)N[C@H](C(=O)N[C@@H](Cc2ccccc2)C[C@H](O)[C@H](Cc2ccccc2)NC(=O)OCc2cncs2)C(C)C)cs1` [RITONAVIR] as the molecule, how does the IC50 (Plasmodium falciparum [1]) read?
Answer: 9660 nM

Question: `CCN(CC)CCCC(C)Nc1ccnc2cc(Cl)ccc12` (centres undefined) [CHLOROQUINE] was tested. Which IC50 (Plasmodium vivax [2]) did it give?
Answer: 38 nM

Question: And the IC50 (Plasmodium vivax [3])?
Answer: 442 nM

Question: For `OC(c1cc(C(F)(F)F)nc2c(C(F)(F)F)cccc12)C1CCCCN1` (centres undefined) [MEFLOQUINE], which IC50 (Plasmodium falciparum [1]) is on record?
Answer: 137 nM

Question: And the IC50 (Plasmodium vivax [4])?
Answer: 43 nM

Question: What about the IC50 (Plasmodium vivax [5]) of the same molecule?
Answer: 176 nM

Question: And the IC50 (Plasmodium falciparum [6])?
Answer: 182 nM

Question: And the IC50 (Plasmodium falciparum [7])?
Answer: 77 nM

Reference: ChEMBL document CHEMBL1275446, “Stronger activity of human immunodeficiency virus type 1 protease inhibitors against clinical isolates of Plasmodium vivax than against those of P. falciparum” (Antimicrob Agents Chemother, 2008)
